Test results as given in US10357589B2, “One component fibrin glue comprising a polymerization inhibitor” (Omrix Biopharmaceuticals Ltd., priority 2013, dated 2019).
Entries after “also recorded” stand apart in the source; their conditions may differ.

How the values were obtained:
fibrin monomers [1] = assay: Time to clot of GPRP peptide:fibrin monomers mixture (cessation of flow when inverting the tube); type: biochemical
Description: A mixture of GPRP peptide:fibrin monomers was prepared as follows:
Fibrinogen final concentration used was 1%, 1.5%, 3%, 3.5%. A BAC2 solution [fibrinogen component of EVICEL®] containing 7% clottable fibrinogen was diluted in 20 mM sodium acetate (NaAcetate) buffer, pH 7.0 to obtain the final listed concentrations.
To form fibrin, thrombin (as in EVICEL® Fibrin Sealant) was added to the fibrinogen solution at a final concentration of 10 IU/ml or 100 IU/ml and then the time to clot was recorded. Clotting was assessed by cessation of flow when inverting the tube.
The fibrin monomer concentration was estimated as being equal to the fibrinogen concentration.
All of these (having a ratio of at most 57:1) are below the minimal ratio required for long term stabilization of fibrin monomers. The GPRP:fibrin solution was prepared as described above (by adding a GPRP peptide into a fibrinogen solution and adding thrombin into the GPRP:fibrinogen mix). Next, the time to clotting was recorded as above.

fibrin monomers [2] = assay: as above; type: biochemical; details: 1% fibrin monomers, thrombin 10 or 100 IU/ml

Gly-Pro-Arg-Pro [GPRP]
Time to clot (fibrin monomers [1]; 1% fibrin monomers, 0.1 mM GPRP, GPRP:fibrin 3.4 fold, thrombin 10 or 100 IU/ml): immediately; also recorded: Immediate
Time to clot (fibrin monomers [1]; 3% fibrin monomers, 0.1 mM GPRP, GPRP:fibrin 1.1 fold): 5 s
Time to clot (fibrin monomers [1]; 3% fibrin monomers, 0.2 mM GPRP, GPRP:fibrin 2.3 fold): 7 s
Time to clot (fibrin monomers [1]; 3% fibrin monomers, 0.5 mM GPRP, GPRP:fibrin 5.7 fold): 11 s
Time to clot (fibrin monomers [1]; 3% fibrin monomers, 1 mM GPRP, GPRP:fibrin 11.3 fold): 13 s
Time to clot (fibrin monomers [1]; 3% fibrin monomers, 1.5 mM GPRP, GPRP:fibrin 17 fold): 22 s
Time to clot (fibrin monomers [1]; 3% fibrin monomers, 2 mM GPRP, GPRP:fibrin 22.7 fold): 28 s
Time to clot (fibrin monomers [1]; 3% fibrin monomers, 3 mM GPRP, GPRP:fibrin 34 fold): 150 s
Time to clot (fibrin monomers [1]; 3% fibrin monomers, 4 mM GPRP, GPRP:fibrin 45 fold): 480 s
Time to clot (fibrin monomers [1]; 3% fibrin monomers, 5 mM GPRP, GPRP:fibrin 56.7 fold): 900 s
Time to clot (fibrin monomers [2]; 5 mM GPRP, GPRP:fibrin 170 fold): 4 h
Time to clot (fibrin monomers [2]; 10 mM GPRP, GPRP:fibrin 340 fold): 170 to 190 h
